Reference: the kinase profiling compilation of Christmann-Franck et al. (2016)

Legend:
Assay in all cases: KINOMEscan competition binding
Conditions in all cases: compound 1.0 µM
BRSK1 (human) = BRSK1 (human) (UniProt Q8TDC3)
DYRK1B (human) = DYRK1B (human) (UniProt Q9Y463)
TNIK (human) = TNIK (human) (UniProt Q9UKE5)
CSNK1A1 (human) = CSNK1A1 (human) (UniProt P48729)
PTK6 (human) = PTK6 (human) (UniProt Q13882)
NLK (human) = NLK (human) (UniProt Q9UBE8)
PDGFRA (human) = PDGFRA (human) (UniProt P16234)
NEK6 (human) = NEK6 (human) (UniProt Q9HC98)
CSNK1G1 (human) = CSNK1G1 (human) (UniProt Q9HCP0)
MYO3B (human) = MYO3B (human) (UniProt Q8WXR4)
MAP3K1 (human) = MAP3K1 (human) (UniProt Q13233)
SRC (human) = SRC (human) (UniProt P12931)
BTK (human) = BTK (human) (UniProt Q06187)
PRKD1 (human) = PRKD1 (human) (UniProt Q15139)
[1] = system: EIF2AK4 KD2 (human), Q9P2K8 [S808G]
[2] = system: FLT3 (human), P36888 [R834Q]
[3] = system: RET (human), P07949 [V804M]
IRAK4 (human) = IRAK4 (human) (UniProt Q9NWZ3)
ROCK2 (human) = ROCK2 (human) (UniProt O75116)
PRKCQ (human) = PRKCQ (human) (UniProt Q04759)
[4] = system: EGFR (human), P00533 [747-751 del / S ins]
TAOK1 (human) = TAOK1 (human) (UniProt Q7L7X3)
PIK3C2G (human) = PIK3C2G (human) (UniProt O75747)
ROS1 (human) = ROS1 (human) (UniProt P08922)
[5] = target: TYK2 JH2 pseudokinase (human) (UniProt P29597)
SRPK2 (human) = SRPK2 (human) (UniProt P78362)
AKT1 (human) = AKT1 (human) (UniProt P31749)
ULK3 (human) = ULK3 (human) (UniProt Q6PHR2)
[6] = system: KIT (human), P10721 [V559D/T670I]
MST4 (human) = MST4 (human) (UniProt Q9P289)
PAK2 (human) = PAK2 (human) (UniProt Q13177)
DAPK1 (human) = DAPK1 (human) (UniProt P53355)
CDK9 (human) = CDK9 (human) (UniProt P50750)
MAP3K3 (human) = MAP3K3 (human) (UniProt Q99759)
CDC42BPB (human) = CDC42BPB (human) (UniProt Q9Y5S2)
CDK11B (human) = CDK11B (human) (UniProt P21127)
STK10 (human) = STK10 (human) (UniProt O94804)
PKMYT1 (human) = PKMYT1 (human) (UniProt Q99640)
[7] = system: EGFR (human), P00533 [L858R]
LIMK2 (human) = LIMK2 (human) (UniProt P53671)
CASK (human) = CASK (human) (UniProt O14936)
AKT3 (human) = AKT3 (human) (UniProt Q9Y243)
PAK7 (human) = PAK7 (human) (UniProt Q9P286)

Chain of KIT (human), P10721 [V559D/T670I] (P10721 whole entry V559D/T670I, looked up): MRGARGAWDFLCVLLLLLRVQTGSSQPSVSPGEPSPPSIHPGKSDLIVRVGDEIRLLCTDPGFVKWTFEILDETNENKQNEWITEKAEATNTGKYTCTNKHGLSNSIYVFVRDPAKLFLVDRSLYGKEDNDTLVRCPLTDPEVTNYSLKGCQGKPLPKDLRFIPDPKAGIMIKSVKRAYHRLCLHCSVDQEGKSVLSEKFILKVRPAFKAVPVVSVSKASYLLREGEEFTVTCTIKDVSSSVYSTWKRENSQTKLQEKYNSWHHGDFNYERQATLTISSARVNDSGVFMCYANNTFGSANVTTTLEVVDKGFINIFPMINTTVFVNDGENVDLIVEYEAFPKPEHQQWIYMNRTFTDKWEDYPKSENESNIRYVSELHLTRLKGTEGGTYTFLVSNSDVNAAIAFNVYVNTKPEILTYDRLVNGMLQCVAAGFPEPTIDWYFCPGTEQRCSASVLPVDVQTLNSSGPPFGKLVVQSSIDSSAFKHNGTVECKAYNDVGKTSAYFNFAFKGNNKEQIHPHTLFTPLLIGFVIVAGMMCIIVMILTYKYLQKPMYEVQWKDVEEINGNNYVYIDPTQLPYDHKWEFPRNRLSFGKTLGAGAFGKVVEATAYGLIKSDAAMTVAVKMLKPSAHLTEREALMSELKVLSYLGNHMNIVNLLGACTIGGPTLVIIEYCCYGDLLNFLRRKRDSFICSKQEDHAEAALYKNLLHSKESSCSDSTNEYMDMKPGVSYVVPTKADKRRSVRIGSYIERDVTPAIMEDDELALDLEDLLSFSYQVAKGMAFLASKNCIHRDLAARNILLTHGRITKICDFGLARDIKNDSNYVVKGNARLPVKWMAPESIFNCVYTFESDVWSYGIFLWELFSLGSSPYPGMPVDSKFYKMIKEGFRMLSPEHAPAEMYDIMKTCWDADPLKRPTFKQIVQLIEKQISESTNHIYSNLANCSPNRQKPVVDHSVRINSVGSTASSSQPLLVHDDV
Chain of DYRK1B (human) (Q9Y463 whole entry, looked up): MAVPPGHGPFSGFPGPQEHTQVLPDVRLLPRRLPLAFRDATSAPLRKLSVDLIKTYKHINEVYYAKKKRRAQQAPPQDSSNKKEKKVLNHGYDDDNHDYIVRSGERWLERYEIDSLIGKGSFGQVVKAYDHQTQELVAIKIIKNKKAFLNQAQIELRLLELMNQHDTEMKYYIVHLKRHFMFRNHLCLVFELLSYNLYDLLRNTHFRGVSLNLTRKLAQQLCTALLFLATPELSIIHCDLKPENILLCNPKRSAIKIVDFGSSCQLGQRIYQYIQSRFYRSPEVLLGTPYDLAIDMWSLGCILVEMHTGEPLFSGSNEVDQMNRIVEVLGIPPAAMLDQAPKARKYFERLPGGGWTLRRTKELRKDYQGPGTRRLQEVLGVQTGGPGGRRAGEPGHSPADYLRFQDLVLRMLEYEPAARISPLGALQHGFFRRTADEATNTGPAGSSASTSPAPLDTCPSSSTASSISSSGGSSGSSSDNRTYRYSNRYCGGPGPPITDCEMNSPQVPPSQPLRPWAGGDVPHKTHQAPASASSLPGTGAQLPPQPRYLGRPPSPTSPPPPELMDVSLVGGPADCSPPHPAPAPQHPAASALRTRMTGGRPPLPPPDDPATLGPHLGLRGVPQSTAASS
Chain of PKMYT1 (human) (Q99640 whole entry, looked up): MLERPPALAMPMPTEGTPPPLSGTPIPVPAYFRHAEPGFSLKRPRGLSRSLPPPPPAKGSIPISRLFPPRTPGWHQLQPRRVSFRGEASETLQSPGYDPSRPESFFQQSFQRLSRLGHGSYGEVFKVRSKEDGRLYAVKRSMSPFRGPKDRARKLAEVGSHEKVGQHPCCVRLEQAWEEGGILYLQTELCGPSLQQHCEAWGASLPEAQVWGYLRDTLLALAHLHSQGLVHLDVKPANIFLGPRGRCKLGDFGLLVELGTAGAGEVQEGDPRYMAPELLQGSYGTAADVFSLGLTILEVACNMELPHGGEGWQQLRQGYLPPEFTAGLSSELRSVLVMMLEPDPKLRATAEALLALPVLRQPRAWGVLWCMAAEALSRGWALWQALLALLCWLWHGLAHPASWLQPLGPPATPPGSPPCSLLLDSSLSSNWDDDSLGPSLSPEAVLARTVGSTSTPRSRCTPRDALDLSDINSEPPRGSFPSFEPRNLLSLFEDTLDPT
Chain of RET (human), P07949 [V804M] (P07949 whole entry V804M, looked up): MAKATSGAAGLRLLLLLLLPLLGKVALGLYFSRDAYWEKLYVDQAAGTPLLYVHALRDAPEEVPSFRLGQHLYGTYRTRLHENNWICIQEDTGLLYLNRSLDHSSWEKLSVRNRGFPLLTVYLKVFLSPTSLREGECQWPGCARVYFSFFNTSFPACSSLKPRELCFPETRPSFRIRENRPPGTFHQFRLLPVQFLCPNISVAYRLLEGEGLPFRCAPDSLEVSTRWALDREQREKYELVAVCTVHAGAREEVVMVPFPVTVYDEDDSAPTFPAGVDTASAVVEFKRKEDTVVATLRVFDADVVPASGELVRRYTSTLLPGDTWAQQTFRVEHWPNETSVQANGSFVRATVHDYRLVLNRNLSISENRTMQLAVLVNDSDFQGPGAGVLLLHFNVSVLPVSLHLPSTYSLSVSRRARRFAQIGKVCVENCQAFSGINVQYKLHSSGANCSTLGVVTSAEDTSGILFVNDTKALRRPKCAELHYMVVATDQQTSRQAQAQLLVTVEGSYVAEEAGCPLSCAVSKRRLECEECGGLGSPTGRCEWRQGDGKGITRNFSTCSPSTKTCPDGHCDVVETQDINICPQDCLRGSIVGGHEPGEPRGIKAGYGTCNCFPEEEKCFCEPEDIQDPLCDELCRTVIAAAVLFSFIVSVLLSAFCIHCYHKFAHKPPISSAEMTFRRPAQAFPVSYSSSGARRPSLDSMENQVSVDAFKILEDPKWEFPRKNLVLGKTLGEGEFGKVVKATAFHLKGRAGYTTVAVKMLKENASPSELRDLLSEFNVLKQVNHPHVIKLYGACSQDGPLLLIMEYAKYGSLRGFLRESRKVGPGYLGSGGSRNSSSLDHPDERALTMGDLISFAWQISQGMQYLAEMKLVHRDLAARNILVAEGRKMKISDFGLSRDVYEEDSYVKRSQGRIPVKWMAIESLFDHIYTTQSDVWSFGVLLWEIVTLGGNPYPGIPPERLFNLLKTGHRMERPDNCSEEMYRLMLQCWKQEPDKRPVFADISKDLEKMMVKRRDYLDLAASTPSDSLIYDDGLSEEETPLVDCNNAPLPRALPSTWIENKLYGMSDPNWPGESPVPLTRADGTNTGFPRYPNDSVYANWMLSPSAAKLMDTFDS
Chain of TYK2 JH2 pseudokinase (human) (P29597 whole entry, looked up): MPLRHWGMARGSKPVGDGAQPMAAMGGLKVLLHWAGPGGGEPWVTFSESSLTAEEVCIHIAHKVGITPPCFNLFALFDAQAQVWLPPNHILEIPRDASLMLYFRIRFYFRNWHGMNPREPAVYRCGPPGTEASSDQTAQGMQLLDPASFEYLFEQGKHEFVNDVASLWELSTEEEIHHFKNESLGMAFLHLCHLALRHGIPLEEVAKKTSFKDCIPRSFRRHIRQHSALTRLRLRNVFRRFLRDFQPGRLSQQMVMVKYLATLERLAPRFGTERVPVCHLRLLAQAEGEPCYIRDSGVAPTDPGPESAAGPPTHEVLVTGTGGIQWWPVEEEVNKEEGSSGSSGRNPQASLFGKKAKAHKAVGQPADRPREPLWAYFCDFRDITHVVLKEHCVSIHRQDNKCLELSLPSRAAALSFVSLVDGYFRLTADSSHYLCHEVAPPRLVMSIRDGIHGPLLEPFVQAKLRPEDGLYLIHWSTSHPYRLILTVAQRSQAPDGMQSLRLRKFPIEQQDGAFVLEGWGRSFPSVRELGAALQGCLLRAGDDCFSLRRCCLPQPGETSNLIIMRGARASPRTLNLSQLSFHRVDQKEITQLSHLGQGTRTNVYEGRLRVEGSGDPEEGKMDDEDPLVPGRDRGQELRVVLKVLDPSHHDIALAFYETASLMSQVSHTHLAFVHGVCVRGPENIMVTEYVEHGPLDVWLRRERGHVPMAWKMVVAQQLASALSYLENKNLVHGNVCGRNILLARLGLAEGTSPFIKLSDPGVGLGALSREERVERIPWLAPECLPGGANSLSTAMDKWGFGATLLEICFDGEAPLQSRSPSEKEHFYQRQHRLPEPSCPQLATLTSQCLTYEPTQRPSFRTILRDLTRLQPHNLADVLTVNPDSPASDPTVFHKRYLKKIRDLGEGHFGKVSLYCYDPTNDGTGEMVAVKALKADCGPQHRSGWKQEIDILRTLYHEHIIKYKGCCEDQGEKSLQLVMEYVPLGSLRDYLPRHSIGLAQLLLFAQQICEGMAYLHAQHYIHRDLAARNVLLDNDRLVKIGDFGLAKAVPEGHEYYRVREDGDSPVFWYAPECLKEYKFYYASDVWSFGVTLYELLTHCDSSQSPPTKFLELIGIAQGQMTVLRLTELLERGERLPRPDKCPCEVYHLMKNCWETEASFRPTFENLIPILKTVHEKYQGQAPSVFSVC
Chain of MST4 (human) (Q9P289 whole entry, looked up): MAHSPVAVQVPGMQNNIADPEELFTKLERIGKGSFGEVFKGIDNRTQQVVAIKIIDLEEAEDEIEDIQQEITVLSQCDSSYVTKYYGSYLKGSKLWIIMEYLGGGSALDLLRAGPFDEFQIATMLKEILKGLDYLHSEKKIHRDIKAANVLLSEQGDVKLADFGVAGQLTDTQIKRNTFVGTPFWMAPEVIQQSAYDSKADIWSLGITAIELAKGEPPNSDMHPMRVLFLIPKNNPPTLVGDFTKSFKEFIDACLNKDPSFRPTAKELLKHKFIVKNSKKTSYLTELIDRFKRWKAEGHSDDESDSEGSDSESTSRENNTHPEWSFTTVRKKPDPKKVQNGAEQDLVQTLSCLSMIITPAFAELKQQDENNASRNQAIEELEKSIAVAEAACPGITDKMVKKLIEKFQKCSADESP

COCCNCCCn1c(C(=O)CF)c(-c2ccc(C)cc2)c2c(N)ncnc21
kinase still bound, per cent of control (BRSK1 (human)): 82% | kinase still bound, per cent of control (DYRK1B (human)): 96% | kinase still bound, per cent of control (TNIK (human)): 95% | kinase still bound, per cent of control (CSNK1A1 (human)): 100% | kinase still bound, per cent of control (PTK6 (human)): 90% | kinase still bound, per cent of control (NLK (human)): 96% | kinase still bound, per cent of control (PDGFRA (human)): 83% | kinase still bound, per cent of control (NEK6 (human)): 100% | kinase still bound, per cent of control (CSNK1G1 (human)): 91% | kinase still bound, per cent of control (MYO3B (human)): 79% | kinase still bound, per cent of control (MAP3K1 (human)): 100% | kinase still bound, per cent of control (SRC (human)): 98% | kinase still bound, per cent of control (BTK (human)): 87% | kinase still bound, per cent of control (PRKD1 (human)): 100% | kinase still bound, per cent of control [1]: 100% | kinase still bound, per cent of control [2]: 96% | kinase still bound, per cent of control [3]: 100% | kinase still bound, per cent of control (IRAK4 (human)): 100% | kinase still bound, per cent of control (ROCK2 (human)): 94% | kinase still bound, per cent of control (PRKCQ (human)): 99% | kinase still bound, per cent of control [4]: 84% | kinase still bound, per cent of control (TAOK1 (human)): 100% | kinase still bound, per cent of control (PIK3C2G (human)): 92% | kinase still bound, per cent of control (ROS1 (human)): 100% | kinase still bound, per cent of control [5]: 100% | kinase still bound, per cent of control (SRPK2 (human)): 100% | kinase still bound, per cent of control (AKT1 (human)): 100% | kinase still bound, per cent of control (ULK3 (human)): 99% | kinase still bound, per cent of control [6]: 86% | kinase still bound, per cent of control (MST4 (human)): 69% | kinase still bound, per cent of control (PAK2 (human)): 85% | kinase still bound, per cent of control (DAPK1 (human)): 100% | kinase still bound, per cent of control (CDK9 (human)): 100% | kinase still bound, per cent of control (MAP3K3 (human)): 96% | kinase still bound, per cent of control (CDC42BPB (human)): 94% | kinase still bound, per cent of control (CDK11B (human)): 100% | kinase still bound, per cent of control (STK10 (human)): 100% | kinase still bound, per cent of control (PKMYT1 (human)): 86% | kinase still bound, per cent of control [7]: 62% | kinase still bound, per cent of control (LIMK2 (human)): 100% | kinase still bound, per cent of control (CASK (human)): 62% | kinase still bound, per cent of control (AKT3 (human)): 86% | kinase still bound, per cent of control (PAK7 (human)): 82%
